Reference: patent publication US12077503B2, “Substituted cyclic amides and their use as herbicides” (FMC CORPORATION, priority 2015, dated 2024)

How the values were obtained:
Type in all cases: in vivo
[1] = system: ducksalad (Heteranthera limosa); test: Test B flooded paddy test; settings: Heteranthera limosa, 250 g ai/ha, Flood; 0 to 100 scale where 0 is no effect and 100 is complete control; read-out: Ducksalad plant response rating
Procedure, shortened: (§1)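 Flooding to 3 cm over soil accompanied treatment, which consisted of adding compound to the standing water around 2-leaf plants; depth was then maintained. Visual assessment versus controls followed at 13 to 15 d (scale 0–100, 0 meaning no effect).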

rice (Oryra sativa) = test: Test B flooded paddy test; settings: Oryza sativa, 250 g ai/ha, Flood; 0 to 100 scale where 0 is no effect and 100 is complete control; read-out: Rice plant response rating
Procedure, shortened: as §1

[2] = system: barnyardgrass (Echinochloa crus-galli); test: Test B flooded paddy test; settings: Echinochloa crus-galli, 250 g ai/ha, Flood; 0 to 100 scale where 0 is no effect and 100 is complete control; read-out: Barnyardgrass plant response rating
Procedure, shortened: as §1

[3] = system: sedge, umbrella (small-flower umbrella sedge, Cyperus difformis); test: Test B flooded paddy test; settings: Cyperus difformis, 250 g ai/ha, Flood; 0 to 100 scale where 0 is no effect and 100 is complete control; read-out: Sedge, Umbrella plant response rating
Procedure, shortened: as §1

[4] = system: giant foxtail (Setaria faberii); test: Test A postemergence; settings: Setaria faberi, post-emergence, 240 h, postemergence; for pest or weed control at 125 g/ha: 125 g ai/ha, visual injury vs untreated controls after approx. 10 d, 0 = no effect, 100 = complete control, read-out: Foxtail, Giant plant response rating (0 to 100 scale); for pest or weed control at 500 g/ha: 500 g ai/ha, 0 to 100 scale, 0 is no effect, 100 is complete control, read-out: Foxtail, Giant plant response rating
Procedure, shortened: (§2)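 Seeded soil received test chemicals as a preemergence directed spray, and seedlings at one to two leaves, 2–10 cm tall, received them postemergence, in a non-phytotoxic, surfactant-containing solvent mixture. Pots were held in a greenhouse for approximately 10 d, then rated for injury from 0, no effect, to 100, complete control.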

[5] = system: ryegrass, Italian (Italian ryegrass, Lolium multiflorum); test: Test A postemergence; settings: Lolium multiflorum, post-emergence, 240 h, postemergence; for pest or weed control at 125 g/ha: 125 g ai/ha, visual injury vs untreated controls after approx. 10 d, 0 = no effect, 100 = complete control, read-out: Ryegrass, Italian plant response rating (0 to 100 scale); for pest or weed control at 500 g/ha: 500 g ai/ha, 0 to 100 scale, 0 is no effect, 100 is complete control, read-out: Ryegrass, Italian plant response rating
Procedure, shortened: as §2

Kochia (Kochia scoparia) [6] = test: Test A postemergence; settings: Bassia scoparia, post-emergence, 240 h, postemergence; for pest or weed control at 125 g/ha: 125 g ai/ha, visual injury vs untreated controls after approx. 10 d, 0 = no effect, 100 = complete control, read-out: Kochia plant response rating (0 to 100 scale); for pest or weed control at 500 g/ha: 500 g ai/ha, 0 to 100 scale, 0 is no effect, 100 is complete control, read-out: Kochia plant response rating
Procedure, shortened: as §2

[7] = system: pigweed (Amaranthus retroflexus); test: Test A postemergence; settings: Amaranthus retroflexus, post-emergence, 240 h, postemergence; for pest or weed control at 125 g/ha: 125 g ai/ha, visual injury vs untreated controls after approx. 10 d, 0 = no effect, 100 = complete control, read-out: Pigweed plant response rating (0 to 100 scale); for pest or weed control at 500 g/ha: 500 g ai/ha, 0 to 100 scale, 0 is no effect, 100 is complete control, read-out: Pigweed plant response rating
Procedure, shortened: as §2

[8] = system: giant foxtail (Setaria faberii); test: Test A preemergence; settings: Setaria faberi, pre-emergence, 240 h, preemergence, 0 to 100 scale where 0 is no effect and 100 is complete control, read-out: Foxtail, Giant plant response rating; for pest or weed control at 125 g/ha: 125 g ai/ha, visual injury rating, approximately 10 d; for pest or weed control at 500 g/ha: 500 g ai/ha
Procedure, shortened: as §2

[9] = system: ragweed (common ragweed, Ambrosia elatior); test: Test A preemergence; settings: Ambrosia artemisiifolia, pre-emergence, 240 h, preemergence, 0 to 100 scale where 0 is no effect and 100 is complete control, read-out: Ragweed plant response rating; for pest or weed control at 125 g/ha: 125 g ai/ha, visual injury rating, approximately 10 d; for pest or weed control at 500 g/ha: 500 g ai/ha
Procedure, shortened: as §2

[10] = system: barnyardgrass (Echinochloa crus-galli); test: Test A preemergence; settings: Echinochloa crus-galli, pre-emergence, 240 h, preemergence, 0 to 100 scale where 0 is no effect and 100 is complete control, read-out: Barnyardgrass plant response rating; for pest or weed control at 125 g/ha: 125 g ai/ha, visual injury rating, approximately 10 d; for pest or weed control at 500 g/ha: 500 g ai/ha
Procedure, shortened: as §2

[11] = system: ryegrass, Italian (Italian ryegrass, Lolium multiflorum); test: Test A preemergence; settings: Lolium multiflorum, pre-emergence, 240 h, preemergence, 0 to 100 scale where 0 is no effect and 100 is complete control, read-out: Ryegrass, Italian plant response rating; for pest or weed control at 125 g/ha: 125 g ai/ha, visual injury rating, approximately 10 d; for pest or weed control at 500 g/ha: 500 g ai/ha
Procedure, shortened: as §2

Kochia (Kochia scoparia) [12] = test: Test A preemergence; settings: Bassia scoparia, pre-emergence, 240 h, preemergence, 0 to 100 scale where 0 is no effect and 100 is complete control, read-out: Kochia plant response rating; for pest or weed control at 125 g/ha: 125 g ai/ha, visual injury rating, approximately 10 d; for pest or weed control at 500 g/ha: 500 g ai/ha
Procedure, shortened: as §2

[13] = system: pigweed (Amaranthus retroflexus); test: Test A preemergence; settings: Amaranthus retroflexus, pre-emergence, 240 h, preemergence, 0 to 100 scale where 0 is no effect and 100 is complete control, read-out: Pigweed plant response rating; for pest or weed control at 125 g/ha: 125 g ai/ha, visual injury rating, approximately 10 d; for pest or weed control at 500 g/ha: 500 g ai/ha

| Structure (SMILES) | pest or weed control at 250 g/ha [1] [%] | pest or weed control at 250 g/ha (rice (Oryra sativa)) [%] | pest or weed control at 250 g/ha [2] [%] | pest or weed control at 250 g/ha [3] [%] | pest or weed control at 125 g/ha [4] [%] | pest or weed control at 500 g/ha [4] [%] | pest or weed control at 125 g/ha [5] [%] | pest or weed control at 500 g/ha [5] [%] | pest or weed control at 125 g/ha (Kochia (Kochia scoparia) [6]) [%] | pest or weed control at 500 g/ha (Kochia (Kochia scoparia) [6]) [%] | pest or weed control at 125 g/ha [7] [%] | pest or weed control at 500 g/ha [7] [%] | pest or weed control at 125 g/ha [8] [%] | pest or weed control at 500 g/ha [8] [%] | pest or weed control at 125 g/ha [9] [%] | pest or weed control at 500 g/ha [9] [%] | pest or weed control at 125 g/ha [10] [%] | pest or weed control at 500 g/ha [10] [%] | pest or weed control at 125 g/ha [11] [%] | pest or weed control at 500 g/ha [11] [%] | also measured |
| --- | --- | --- | --- | --- | --- | --- | --- | --- | --- | --- | --- | --- | --- | --- | --- | --- | --- | --- | --- | --- | --- |
| CSc1ccccc1NC(=O)[C@H]1C(=O)N(C)CC[C@@H]1c1ccc(C(F)(F)F)cc1 [Compound 1227] | 80 | 15 | 0 | 0 | 0 | 0 | 0 | 0 | 0 | 30 | 20 | 30 | 50 | 90 | 0 | 0 | 0 | 40 | 20 | 70 | pest or weed control at 125 g/ha (Kochia (Kochia scoparia) [12]): 0%; pest or weed control at 500 g/ha (Kochia (Kochia scoparia) [12]): 0%; pest or weed control at 125 g/ha [13]: 30%; pest or weed control at 500 g/ha [13]: 60% |
| CSc1ccccc1NC(=O)[C@H]1C(=O)N(C)C[C@@H]1c1ccc(F)cc1 [Compound 1236] | 100 | 35 | 65 | 0 | 30 | 90 | 0 | 50 | 20 | 30 | 20 | 40 | 90 | 100 | 0 | 30 | 90 | 100 | 30 | 80 | pest or weed control at 125 g/ha (Kochia (Kochia scoparia) [12]): 20%; pest or weed control at 500 g/ha (Kochia (Kochia scoparia) [12]): 90%; pest or weed control at 125 g/ha [13]: 60%; pest or weed control at 500 g/ha [13]: 90% |
| Cc1ccccc1NC(=O)[C@H]1C(=O)N(C)C[C@@H]1c1ccc(C(F)(F)F)cc1 [Compound 1239] | 100 | 20 | 40 | 0 | 90 | 90 | 20 | 50 | 40 | 70 | 50 | 50 | 90 | 90 | 0 | 70 | 80 | 90 | 50 | 50 | pest or weed control at 125 g/ha (Kochia (Kochia scoparia) [12]): 90%; pest or weed control at 125 g/ha [13]: 20%; pest or weed control at 500 g/ha [13]: 60% |
| O=C1NC[C@H](c2cccc(C(F)(F)F)c2)C1C(=O)Nc1c(F)cccc1CO (some centres unmarked) [Compound 1240] | 0 | 0 | 0 | 0 | 0 | 0 | 0 | 0 | 0 | 0 | 0 | 0 | 0 | 0 | 0 | 0 | 0 | 0 | 0 | 0 | pest or weed control at 125 g/ha (Kochia (Kochia scoparia) [12]): 0%; pest or weed control at 500 g/ha (Kochia (Kochia scoparia) [12]): 0%; pest or weed control at 125 g/ha [13]: 0%; pest or weed control at 500 g/ha [13]: 0% |
| O=C1NC[C@H](c2cccc(C(F)(F)F)c2)C1C(=O)Nc1ccccc1CO (some centres unmarked) [Compound 1244] | 30 | 0 | 20 | 0 | 50 | 90 | 0 | 30 | 0 | 0 | 0 | 0 | 90 | 90 | 0 | 0 | 80 | 90 | 0 | 50 | pest or weed control at 125 g/ha (Kochia (Kochia scoparia) [12]): 0%; pest or weed control at 500 g/ha (Kochia (Kochia scoparia) [12]): 0%; pest or weed control at 125 g/ha [13]: 0%; pest or weed control at 500 g/ha [13]: 0% |
